Measured values: patent US9056863B2, “Substituted 2,3,5,9,9B-pentaazacyclopenta[a]naphthalenes and uses thereof” (H. Lundbeck A/S, priority 2011, dated 2015)
Values belong to the compound of their own block, whether it stands above or below them.

Experiments:
human PDE10A = human PDE10A (Homo sapiens (Human), UniProt Q9Y233); test: PDE10A inhibition assay; assay type: biochemical; details: for PDE10 % inhibition: @ 10,000 nM
Method: Active PDE10A enzyme is prepared in a number of ways for use in PDE assays (Loughney, K. et al. Gene 1999, 234, 109-117; Fujishige, K. et al. Eur J. Biochem. 1999, 266, 1118-1127 and Soderling, S. et al. Proc. Natl. Acad. Sci. 1999, 96, 7071-7076). PDE10A can be expressed as full-length proteins or as truncated proteins, as long as they express the catalytic domain. PDE10A can be prepared in different cell types, for example insect cells or E. coli. An example of a method to obtain catalytically active PDE10A is as follows: The catalytic domain of human PDE10A (amino acids 440-779 from the sequence with accession number NP 006652) is amplified from total human brain total RNA by standard RT-PCR and is cloned into the BamH1 and XhoI sites of the pET28a vector (Novagen). Expression in coli is performed according to standard protocols. Briefly, the expression plasmids are transformed into the BL21(DE3) E. coli strain, and 50 mL cultures inoculated with the cells allowed to grow to an OD600 of 0.4-0.6 before protein expression is induced with 0.5 mM IPTG. Following induction, the cells are incubated overnight at room temperature, after which the cells are collected by centrifugation. Cells expressing PDE10A are resuspended in 12 mL (50 mM TRIS-HCl-pH8.0, 1 mM MgCl2 and protease inhibitors). The cells are lysed by sonication, and after all cells are lysed, TritonX100 is added according to Novagen protocols.
A typical PDE10A assay was performed as follows: the assay was performed in 60 μL samples containing a fixed amount of the […] enzyme (sufficient to convert 20-25% of the cyclic nucleotide substrate), a buffer (50 mM HEPES pH 7.6; 10 mM MgCl2; 0.02% Tween20), 10 nM tritium labelled cAMP and varying amounts of inhibitors. […] The beads were allowed to settle for 1 h in the dark before the plates were counted in a Wallac 1450 Microbeta counter. The measured signals were converted to activity relative to an uninhibited control (100%) and IC50 values were calculated using XlFit (model 205, IDBS).

human PDE2A enzyme = human PDE2A enzyme (Homo sapiens (Human), UniProt O00408); test: PDE2A inhibition assay; assay type: biochemical; details: 15 nM tritium labelled cAMP, SPA
Method: Likewise, active human PDE2A enzyme (ATCC68585) is prepared in a number of ways for use in PDE assays and procedures are well known to those skilled in the art.
A typical PDE2A assay was performed as follows: the assay was performed in 60 μL samples containing a fixed amount of the […] enzyme (sufficient to convert 20-25% of the cyclic nucleotide substrate), a buffer (50 mM HEPES pH 7.6; 10 mM MgCl2; 0.02% Tween20), 0.1 mg/ml BSA, 15 nM tritium labelled cAMP and varying amounts of inhibitors. Reactions were initiated by addition of the cyclic nucleotide substrate, and reactions were allowed to proceed for 1 h at room temperature before being terminated through mixing with 20 μL (0.2 mg) yttrium silicate SPA beads (Amersham). The beads were allowed to settle for 1 h in the dark before the plates were counted in a Wallac 1450 Microbeta counter. The measured signals were converted to activity relative to an uninhibited control (100%) and IC50 values were calculated using XlFit (model 205, IDBS).

[1] = cited from earlier work
[2] = rats; cited from earlier work
[3] = rats, subchronic phencyclidine; cited from earlier work
[4] = cited from earlier work; remark: listed apart in the source
[5] = mice, BSO glutathione depletion; cited from earlier work
[6] = aged rats; cited from earlier work
[7] = tryptophan depletion; cited from earlier work
[8] = system: primary neuronal cultures and hippocampal slices; details: cited from earlier work
[9] = in vivo; cited from earlier work
rat hippocampal slices = details: cited from earlier work

human PDE10A, sequence (Q9Y233 716-1055): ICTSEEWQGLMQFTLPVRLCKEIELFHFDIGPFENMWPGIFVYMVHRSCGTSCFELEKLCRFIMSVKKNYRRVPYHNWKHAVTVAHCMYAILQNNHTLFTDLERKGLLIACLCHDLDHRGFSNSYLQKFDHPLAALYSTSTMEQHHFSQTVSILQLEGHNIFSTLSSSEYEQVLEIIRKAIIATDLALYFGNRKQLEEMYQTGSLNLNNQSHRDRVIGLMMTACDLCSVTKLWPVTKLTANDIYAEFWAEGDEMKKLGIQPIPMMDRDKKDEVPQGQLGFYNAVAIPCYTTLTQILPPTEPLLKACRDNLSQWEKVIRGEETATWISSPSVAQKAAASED
human PDE2A enzyme, sequence (O00408 whole entry): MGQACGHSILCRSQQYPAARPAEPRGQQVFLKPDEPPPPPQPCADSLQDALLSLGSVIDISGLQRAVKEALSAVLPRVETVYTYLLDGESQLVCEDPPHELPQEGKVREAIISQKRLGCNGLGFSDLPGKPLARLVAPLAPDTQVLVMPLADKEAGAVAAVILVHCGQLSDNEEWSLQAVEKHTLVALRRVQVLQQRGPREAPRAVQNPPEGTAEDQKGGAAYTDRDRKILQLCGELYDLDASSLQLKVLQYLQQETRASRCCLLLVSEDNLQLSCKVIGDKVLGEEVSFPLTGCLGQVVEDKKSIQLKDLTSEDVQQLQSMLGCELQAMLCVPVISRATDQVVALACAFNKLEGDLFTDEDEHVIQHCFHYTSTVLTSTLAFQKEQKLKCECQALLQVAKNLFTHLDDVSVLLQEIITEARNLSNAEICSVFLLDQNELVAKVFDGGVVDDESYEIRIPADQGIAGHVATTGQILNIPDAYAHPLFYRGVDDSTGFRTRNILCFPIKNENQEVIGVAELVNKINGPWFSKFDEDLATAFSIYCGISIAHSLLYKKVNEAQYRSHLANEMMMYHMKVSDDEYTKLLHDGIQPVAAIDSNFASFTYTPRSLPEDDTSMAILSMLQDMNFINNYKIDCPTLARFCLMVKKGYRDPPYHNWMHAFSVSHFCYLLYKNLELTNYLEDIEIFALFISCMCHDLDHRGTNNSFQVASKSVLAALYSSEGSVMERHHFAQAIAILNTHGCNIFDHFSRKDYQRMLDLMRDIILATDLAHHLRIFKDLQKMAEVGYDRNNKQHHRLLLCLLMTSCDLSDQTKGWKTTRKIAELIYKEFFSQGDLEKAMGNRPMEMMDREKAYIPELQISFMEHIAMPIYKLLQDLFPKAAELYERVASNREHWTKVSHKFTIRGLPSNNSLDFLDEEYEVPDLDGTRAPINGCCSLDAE

PDE10 % inhibition (human PDE10A): 68% inhibition | IC50 (human PDE2A enzyme): 471 nM
Structure (SMILES): Cc1nc2cnccc2n2c(-c3ccccc3Cl)nnc12 [Example Ib1, 1-(2-Chloro-phenyl)-4-methyl-2,3,5,7,9b-pentaaza-cyclopenta[a]naphthalene]

Structure (SMILES): O=C(CCCN1CCC(O)(c2ccc(Cl)cc2)CC1)c1ccc(F)cc1 [haloperidol]
cGMP levels ([1]; patients): increased | cAMP levels ([1]; rats): increased

Structure (SMILES): COc1ccc(Cc2nccc3cc(OC)c(OC)cc23)cc1OC [papaverine]
apomorphine-induced stereotypies [2]: reduces apomorphine-induced stereotypies | dopamine concentration in rat brain [2]: reducing dopamine concentration | haloperidol-induced catalepsy [2]: increases haloperidol-induced catalepsy | attentional set-shifting deficits [3]: reverses attentional set-shifting deficits

Structure (SMILES): COc1cc2c(cc1-c1ccccc1)C(c1cccc(C(N)=O)c1)=NCC(=O)N2C [ND7001]
anxiogenic effects of restraint stress on behaviour [4]: antagonized the anxiogenic effects

Structure (SMILES): NCCN(CCN)/[N+]([O-])=N/O [detanonoate]
anxiogenic effects of restraint stress on behaviour [4]: antagonized the anxiogenic effects

PDE10 % inhibition (human PDE10A): 48% inhibition | IC50 (human PDE2A enzyme): 504 nM
Structure (SMILES): Cc1cccc(Cl)c1-c1nnc2c(C)nc3ncccc3n12 [Example Ia2, 1-(2-Chloro-6-methyl-phenyl)-4-methyl-2,3,5,6,9b-pentaaza-cyclopenta[a]naphthalene]

Structure (SMILES): COc1ccc(Cc2nn3c([C@@H](CCCc4ccccc4)[C@@H](C)O)nc(C)c3c(=O)[nH]2)cc1OC [Bay 60-7550]
anxiety-like behaviours [5]: reversed | object recognition [6]: beneficial effect | deficit in object recognition [7]: reverse the deficit in object recognition | cGMP [8]: preferentially increases cGMP | activity in novel object and social recognition tasks [9]: active | long term potentiation (LTP) induction (rat hippocampal slices): increases long term potentiation (LTP) induction | anxiogenic effects of restraint stress on behaviour [4]: antagonized the anxiogenic effects

IC50 (human PDE10A; 10 nM tritium labelled cAMP, SPA, read-out: PDE10 IC50): 1760 nM
Structure (SMILES): Cc1nc2ccncc2n2c(-c3ccccc3Cl)nnc12 [Example Ic1, 1-(2-Chloro-phenyl)-4-methyl-2,3,5,8,9b-pentaaza-cyclopenta[a]naphthalene]
